Data on three compounds can be found in patent US7485657B2, “Anti-cytokine heterocyclic compounds” (Boehringer Ingelheim Pharmaceuticals, Inc., priority 2004, dated 2009).

Counter-ions that a name gives are not always drawn.

As usually defined, the melting point is the temperature, or range, at which the solid turns liquid.

`CCOC(=O)c1cnn(-c2cc(C(=O)Nc3cc(C(C)(C)C)cc(NS(C)(=O)=O)c3OC)ccc2C)c1` [Example 2, 1-[5-(5-tert-butyl-3-methanesulfonylamino-2-methoxy-phenylcarbamoyl)-2-methyl-phenyl]-1H-pyrazole-4-carboxylic acid ethyl ester] registered a melting point of 125 to 130 °C.
Then `CCOC(=O)c1cc(N)n(-c2cc(C(=O)Nc3cc(C(C)(C)C)cc(NS(C)(=O)=O)c3OC)ccc2C)n1` (as salt: TFA) [Example 1, 5-amino-1-[5-(5-tert-butyl-3-methanesulfonylamino-2-methoxy-phenylcarbamoyl)-2-methyl-phenyl]-1H-pyrazole-3-carboxylic acid ethyl ester], with 104 to 111 °C (dec.); and `COc1c(NC(=O)c2ccc(C)c(-n3cc(C(=O)NCc4cccnc4)cn3)c2)cc(C(C)(C)C)cc1NS(C)(=O)=O` [Example 4, 1-[5-(5-tert-Butyl-3-methanesulfonylamino-2-methoxy-phenylcarbamoyl)-2-methyl-phenyl]-1H-pyrazole-4-carboxylic acid (pyridin-3-ylmethyl)-amide], with 127 to 133 °C.
